How the values were obtained:
solid tumors = conditions: days 1 and 8 or days 1, 2 and 3 of 3-week cycle, cited from earlier work
[1] = test system: advanced solid malignancies; conditions: cited from earlier work
advanced solid tumor = conditions: daily dosing 5 or 10 consecutive days in 3-week cycles; cited from earlier work
advanced solid tumors = assay: Ph I clinical dose escalation trial of oral AMG 900; tumor response by CT or MRI using RECIST criteria; format: in vivo, human
Text: Some of the objectives for the study included (1) determination of the maximal tolerated dose (MTD) and if necessary, the MTD in conjunction with prophylactic amounts of granulocyte colony stimulating factor (GCSF); (2) to evaluate the PD effects of drug exposure on phospho-histone H3 (serine 10) proteins levels in tumor tissue; (3) to evaluate change in tumor volume by volumetric or MRI analysis; and (4) to evaluate tumor response assessed by CT or MRI using RECIST criteria. The clinical trial was conducted in accordance with the following design/protocol:
This is an open-label, sequential dose escalation study evaluating AMG 900 in subjects with advanced solid tumors. The study is being conducted in 2 parts: Part 1—Dose Escalation and Part 2—Dose Expansion. […] One cycle is defined as 14 days. Thus, 1 cycle=2 weeks (14 days) and DLT window=4 weeks (28 days).
In addition, treatment with proton pump inhibitors or H2 receptor antagonists was withheld at least 48 hours prior to the first dose of each treatment cycle until at least 1 hour after the fourth dose of a treatment cycle. Starting Dose:
In addition, treatment with proton pump inhibitors or H2 receptor antagonists were withheld at least 48 hours prior to the first dose of each treatment cycle until at least 1 hour after the fourth dose of a treatment cycle. One cycle was defined as 14 days. […] The investigator or sub-investigator performed a physical examination of each subject during clinic visits. A review of concomitant medications and an assessment of adverse events were performed at every visit.
Efficacy was assessed by standardized contrast-enhanced CT or MRI and evaluated according to RECIST criteria. RECIST 1.0 and RECIST 1.1 criteria is described in the Journal of National Cancer Institute, Vol. 92, No. 3:205-216, 2000 and European Journal of Cancer 45:228-247, 2009, respectively, both disclosures of which are hereby incorporated herein by reference in their entireties. CT or MRI scans with contrast were acquired at baseline, 4 weeks after cycle 1 day 1, 8 weeks after cycle 1 day 1, and every 8 weeks thereafter until disease progression. Scans were acquired with slice thickness of about 5 mm or less. Baseline imaging studies were performed within 2 weeks prior to study day 1, and where practicable, they were performed as close to the day of enrollment as possible.

AML = assay: Ph I AML study of oral AMG 900; format: in vivo, human
Text: The data for both studies are as follows:

[2] = Ph I dose escalation: MTD and DLT determination; format: in vivo, human; conditions: once daily oral, 4 days on/10 days off
Text: The dose escalation part of the study was aimed at determining a maximum tolerated dose (MTD) and if necessary the MTD with prophylactic GCSF support (MTD-G), and evaluating the safety, tolerability, pharmacokinetics and pharmacodynamics of AMG 900 in subjects with advanced solid tumors.
A subsequent non-accelerated phase (SNAP) then commenced (≦50% dose escalations once the first grade 2 related toxicity occurred; ≦25% if a DLT occurs) in a standard 3+3 design at the dose level where DLT or possibly related grade 2 toxicity was observed. The percent of dose escalation depended upon toxicities observed in previous cohorts. Intra-subject dose escalation was not allowed. An MTD was determined without prophylactic GCSF support. If neutropenia (or neutropenia related toxicity) was dose limiting, then dose escalation proceeded with prophylactic GCSF support beginning at the dose level at which neutropenia (or neutropenia related toxicity) was dose limiting.

CA-125 = CA-125 in ovarian cancer patient of the Ph I trial; format: in vivo, human; conditions: platinum-sensitive ovarian cancer patient; 16 mg once daily, 8 mg cycles 4-15, 12 mg at cycle 16; end of cycle 16
Description: Disease progression by appearance of new bone lesions in CRPC in the dose expansion phase were evaluated with bone scans. Bone scans were performed at baseline, 4 weeks after cycle 1 day 1, 8 weeks after cycle 1 day 1, and every 8 weeks thereafter until disease progression. Efficacy in ovarian cancer and CRPC were evaluated based on the Rustin criteria (1996) and PCWG2 guidelines, respectively. CA-125 in ovarian cancer and PSA in CRPC were collected every 4 weeks.

[3] = test system: histone H3, a proximal substrate of aurora-B; assay: In vivo phosphorylation of histone H3
[4] = test system: multiple tumor xenografts, including three MDR xenograft models resistant to paclitaxel or docetaxel; assay: Growth of tumor xenografts; format: in vivo
[5] = test system: advanced refractory solid tumors; conditions: cited from earlier work

## Cc1cc(Nc2ncc(F)c(NC3C4C=CC(C4)C3C(N)=O)n2)ccc1N1CCN(C)CC1 (stereo not drawn) [AS703569]
Solid tumors
  impact on the patient's solid tumors: no positive impact(s)
Solid tumors; various dosages
  tolerability: tolerable

## CCN(CCCOc1ccc2c(Nc3cc(CC(=O)Nc4cccc(F)c4)n[nH]3)ncnc2c1)CCOP(=O)(O)O [AZD1152]
[1]; 2 hour IV infusion every 7 days
  dosage amount safely administered: ≤ 450 mg
[1]; patients with rapidly progressive diseases, within 450 mg dose
  disease response: significantly stabilize disease

## CC(=O)NCC(=O)N1[C@@H]2CC[C@H]1c1ccc(Nc3ncc(C(F)(F)F)c(NC4CCC4)n3)cc12 [PF-03814735]
Advanced solid tumor
  objective response on the tumors: NO objective response

## Cc1csc(-c2nnc(Nc3ccc(Oc4ncccc4-c4ccnc(N)n4)cc3)c3ccccc23)c1 [AMG 900, N-(4-((3-(2-amino-4-pyrimidinyl)-2-pyridinyl)oxy)phenyl)-4-(4-methyl-2-thienyl)-1-phthalazinamine]
Advanced solid tumors; Patient No. 1, 1 mg once per day oral, 4 days on/10 days off, cholangiocarcinoma, at week 24
  Observed Response to AMG 900: SD at week 24
Advanced solid tumors; Patient No. 2, 8 mg once per day oral, 4 days on/10 days off, prostate, at week 8
  Observed Response to AMG 900: SD at week 8
Advanced solid tumors; Patient No. 3, 16 mg once per day oral, 4 days on/10 days off, ovarian, at week 40
  Observed Response to AMG 900: SD at week 40
Advanced solid tumors; Patient No. 4, 16 mg once per day oral, 4 days on/10 days off, breast, at week 4
  Observed Response to AMG 900: SD at week 4
Advanced solid tumors; Patient No. 5, 24 mg once per day oral, 4 days on/10 days off, colon, at week 8
  Observed Response to AMG 900: SD at week 8
Advanced solid tumors; Patient No. 6, 25 mg once per day oral, 4 days on/10 days off, rectal, at week 56
  Observed Response to AMG 900: PD at week 56
Advanced solid tumors; Patient No. 7, 24 mg once per day oral, 4 days on/10 days off, Medullary thyroid, at week 120
  Observed Response to AMG 900: SD at week 120
Advanced solid tumors; Patient No. 8, 30 mg + GCSF once per day oral, 4 days on/10 days off, endometrial, at Week 64
  Observed Response to AMG 900: PR at Week 64;
Advanced solid tumors; Patient No. 8, 30 mg + GCSF once per day oral, 4 days on/10 days off, endometrial, at week 72
  Observed Response to AMG 900: SD at week 72
Advanced solid tumors; Patient No. 9, 30 mg + GCSF once per day oral, 4 days on/10 days off, chondrosarcoma, at week 40
  Observed Response to AMG 900: SD at week 40
Advanced solid tumors; Patient No. 10, 40 mg + GCSF once per day oral, 4 days on/10 days off, colon, at week 32
  Observed Response to AMG 900: SD at week 32
Advanced solid tumors; Patient No. 11, 40 mg + GCSF once per day oral, 4 days on/10 days off, Non-small cell lung, at week 32
  Observed Response to AMG 900: SD at week 32
Advanced solid tumors; Patient No. 12, 50 mg + GCSF once per day oral, 4 days on/10 days off, thyroid, at week 32
  Observed Response to AMG 900: SD at week 32
Advanced solid tumors; Patient No. 13, 40 mg + GCSF once per day oral, 4 days on/10 days off, prostate, at week 8
  Observed Response to AMG 900: SD at week 8
Advanced solid tumors; once daily oral, 4 days on/10 days off
  lowest once daily dose at which anti cancer activity was observed: 8 mg
Advanced solid tumors; patient with stage IV solid endometrial tumor, 30 mg + GCSF once daily, 4 days on/10 days off, week 24, CT, RECIST 1.0
  decrease of long axis diameter of tumor versus base line diameter on day 1: approximately 50%
Advanced solid tumors; patient with stage IV-B solid ovarian tumor, 30 mg once daily, 4 days on/10 days off, two cycles, week 4, RECIST 1.1
  reduction of short axis diameter of tumor versus base line diameter on day 1: about 30%
Advanced solid tumors; platinum-sensitive ovarian cancer patient, 16 mg once daily, 8 mg cycles 4-15, 12 mg at cycle 16, 4-day on-10 day off, end of cycle 16
  decrease in SLD (sum of long axis diameters) on CT: 16%
Advanced solid tumors; same endometrial solid tumor, 30 mg once daily, week 16 after eight (8) cycles, CT, RECIST 1.1
  reduction of short axis diameter of tumor: up to 40%
AML; Patient No. 14, 80 mg once per day oral, 4 days on/10 days off
  Observed Response to AMG 900: Active
AML; Patient No. 15, 80 mg once per day oral, 4 days on/10 days off
  Observed Response to AMG 900: Active
AML; Patient No. 16, 30 mg once per day oral, 7 days on/7 days off
  Observed Response to AMG 900: Active
[2]
  doses at which MTD's and DLT's were observed: greater than 8 mg
CA-125
  decrease in CA-125: 45%
[3]
  phosphorylation of histone H3: blocks the phosphorylation
[4]
  growth of tumor xenografts: inhibits the growth

## CO[C@@H](C(=O)N1Cc2n[nH]c(NC(=O)c3ccc(N4CCN(C)CC4)cc3)c2C1)c1ccccc1 [Danusertib]
[5]; over 24 hours in 14 day cycles without GCSF
  amount that can be safely administered: ≤ 500 mg/m^2
[5]; within dose of 500 mg/m^2, small cell lung carcinoma, prolonged disease stabilization in other solid tumors
  tumor response: prolonged objective response

Source: patent US8921367B2 (Amgen Inc., priority 2012, dated 2014)
